Assay results: patent US5859037A, “Sulfonylurea-glitazone combinations for diabetes” (Warner-Lambert Company, priority 1997, dated 1999)

Key:
Format in all cases: in vivo, patients
[1] = system: non-insulin dependent diabetes mellitus (NIDDM); test: Patient disposition (withdrawal, completion); conditions: glyburide monotherapy
Description: This was a 12-month, double-blind, randomized, parallel-group, active-control, multicenter study design (FIG. 1). […] Patients could withdraw voluntarily at any time during the study or be withdrawn by the investigator because of significant adverse events or deterioration in health, poor compliance, pregnancy, or prolonged symptomatic hyperglycemia or persistent worsening or failure to improve glycemic control as monitored by FSG.

[2] = Safety: adverse events and clinical laboratory measurements; conditions: overall, all doses
Method: A complete physical examination and ECG were performed during screening and at the end of the study. Clinical laboratory parameters and vital signs including blood pressure were monitored throughout the study for safety reasons. Adverse events were recorded during clinic visits and evaluated by the investigator for intensity and relationship to study drug. Reduction in the daily dose of micronized glyburide could occur in cases of documented hypoglycemia.
All patients randomized to treatment were included in all safety evaluations.
Hypoglycemia, defined as an FSG <50 mg/dL (verified laboratory value), was to be recorded as an adverse event.
Adverse events that were treatment emergent (not present at baseline) are summarized in the following section using a modified COSTART dictionary. If, however, an adverse event present at baseline increased in intensity or frequency during treatment, the event was included in the summaries. Each patient reporting an adverse event was counted only once for that event regardless of the number of times the adverse event was reported. Associated adverse events were those considered by the investigator to be possibly, probably, or definitely related to study therapy.
Baseline clinical laboratory parameters were compared with values at the end of the study (last visit) to identify any abnormal trends. The percent of patients with increases or decreases in laboratory values were calculated based on the number of patients at risk for changes outside of the reference range; i.e., patients with low or high values at baseline were not considered at risk for a decrease or increase, respectively.
Laboratory results were then reviewed for these particular patients to determine which patients actually had clinically important changes in a given laboratory parameter.

[3] = system: lipid parameters (markers of lipid metabolism); test: Fasting serum lipid profile in 52-week clinical study; conditions: ITT, Week 52
Method: After an initial screening visit, patients meeting the inclusion criteria entered a 4-week baseline phase (unblinded) in which they received 12 mg micronized glyburide (6 mg BID).
Secondary efficacy parameters included markers of glycemic homeostasis (insulin and C-peptide) and markers of lipid metabolism (total cholesterol, total triglycerides, HDL, VLDL, LDL (measured), free fatty acids, Lp(a), Apo A1, and Apo B).
Efficacy analysis was performed on 2 patient populations, intent-to-treat and completers. […] Patients withdrawing from the study before Week 52 were included in the analysis using the LOCF procedure; the last measurement on treatment was substituted for the missing Week 52 measurement. The intent-to-treat patient sample was the primary sample for assessing efficacy. Completers comprised patients in the intent-to-treat sample who completed Week 52.
Summary statistics for baseline, follow-up (post-randomization), and change from baseline in secondary efficacy parameters were computed by treatment group and visit. For each patient, the baseline measurements for insulin, C-peptide, blood pressure, total cholesterol, triglycerides, LDL, HDL, VLDL, and free fatty acids were defined as the measurement at Week 0. In order to reduce variability, the baseline Apo A, Apo B, and Lp(a) levels were defined as the average of the respective measurements at Weeks -1 and 1. Similarly, the end-of-treatment Apo A, Apo B, and Lp(a) measurements were defined as the average of the respective measurements at Weeks 48 and 52. Averages from Weeks 20 and 24 were not carried forward for these special lipid parameters.
Fasting serum lipid profiles were determined at baseline and periodically through Week 52. Apo A1, Apo B, and Lp(a) were determined only at baseline, Month 6, and Month 12 as part of a special laboratory panel.

[4] = system: total insulin and C-peptide; test: Fasting total insulin and C-peptide in 52-week clinical study; conditions: ITT, Week 52; glyburide monotherapy (active control)
Method: This was a 12-month, double-blind, randomized, parallel-group, active-control, multicenter study design (FIG. 1). […] Secondary efficacy parameters included markers of glycemic homeostasis (insulin and C-peptide) and markers of lipid metabolism (total cholesterol, total triglycerides, HDL, VLDL, LDL (measured), free fatty acids, Lp(a), Apo A1, and Apo B). Efficacy analysis was performed on 2 patient populations, intent-to-treat and completers. […] Patients withdrawing from the study before Week 52 were included in the analysis using the LOCF procedure; the last measurement on treatment was substituted for the missing Week 52 measurement. The intent-to-treat patient sample was the primary sample for assessing efficacy. Completers comprised patients in the intent-to-treat sample who completed Week 52. The analysis of change from baseline to Week 52 was performed using analysis of covariance (ANCOVA). The primary model included effects due to treatment and center and baseline as covariate. Treatment-by-baseline and treatment-by-center interactions were also examined in supplemental models.

[5] = Body weight in clinical study; conditions: Month 12
Description: This was a 12-month, double-blind, randomized, parallel-group, active-control, multicenter study design (FIG. 1). […] Patients were instructed to fast overnight prior to visits requiring specimen collection.

[6] = glyburide monotherapy (active control)

COc1ccc(Cl)cc1C(=O)NCCc1ccc(S(=O)(=O)NC(=O)NC2CCCCC2)cc1 [Glyburide]
Withdrawn, Adverse Event, Number (%) of Patients [1]: 6 (7.6) Number (%) of Patients | Withdrawn, Lack of Efficacy, Number (%) of Patients [1]: 20 (25.3) Number (%) of Patients | withdrawal for lack of efficacy [1]: Twenty-five | associated adverse events, incidence [2]: 10% | patients with adverse events [2]: 90% | LDL Cholesterol, Change From Baseline, Mean ([3]; Glynase (active control)): 3.49 mg/dL | LDL Cholesterol, Change From Baseline, Median ([3]; Glynase (active control)): 4.00 mg/dL | Total Cholesterol, Change From Baseline, Mean ([3]; Glynase (active control)): 6.17 mg/dL | Total Cholesterol, Change From Baseline, Median ([3]; Glynase (active control)): 6.50 mg/dL | Apo A1, Change From Baseline, Mean [3, 6]: -1.1 mg/dL | Apo B, Change From Baseline, Mean [3, 6]: 2.9 mg/dL | Free Fatty Acids, Change From Baseline, Mean [3, 6]: -0.05 mEq/L | Free Fatty Acids, Change From Baseline, Median [3, 6]: 0.03 mEq/L | HDL Cholesterol, Change From Baseline, Mean [3, 6]: -0.15 mg/dL | HDL Cholesterol, Change From Baseline, Median [3, 6]: -1.00 mg/dL | LP(a), Change From Baseline, Mean [3, 6]: 1.4 mg/dL | Triglycerides, Change From Baseline, Mean [3, 6]: 14.24 mg/dL | Triglycerides, Change From Baseline, Median [3, 6]: 8.00 mg/dL | VLDL Cholesterol, Change From Baseline, Mean [3, 6]: -2.78 mg/dL | VLDL Cholesterol, Change From Baseline, Median [3, 6]: -1.00 mg/dL | Triglycerides, Change From Baseline, Mean ([3]; glyburide monotherapy (active control), listed as glyburide): 14 mg/dL | C-Peptide, Adjusted Mean Change From Baseline (SE) [4]: -0.67 (0.07) ng/mL | Total Insulin, Adjusted Mean Change From Baseline (SE) [4]: -1.45 (1.39) μIU/mL | Body weight, Adjusted Mean Change From Baseline (SE) ([5]; ITT, glyburide (active control)): -1.3 lbs | mean decrease in body weight from baseline ([5]; monotherapy (troglitazone: range over doses)): 1 lbs
